The results in this text go back to patent US9493478B2, “Fused ring compound containing furan or salt thereof and pharmaceutical composition comprising same” (YUHAN CORPORATION, priority 2012, dated 2016).

Common to all, as to assay type: biochemical
One experiment deals with PI3K β (p110β/p85α)(h) (Homo sapiens, UniProt P42338). In words: Assay for phosphatidylinositol 3-kinase beta (PI3Kβ) activity, PI3K-HTRF kit. The following applies: TR-FRET; enzyme 0.725 μg/ml, 10 μM PIP2, 10 μM ATP. The protocol:
[The source words this procedure for another target and says it was used here with some conditions changed.] (§1) The compounds of the present invention were assayed for the activity of phosphatidylinositol 3-kinase gamma (PI3Kγ) by using a PI3K enzyme-homogenous time resolved fluorescence (PI3K-HTRF) kit, which is available from Upstate (Millipore Co, Billerica, Mass., USA).
(§2) Three kinds of buffer solutions including a phosphorylation reaction solution (a reaction buffer containing 40 mM MgCl2 which is available from Upstate was diluted 4 times and added with 5 mM DTT), a stop solution (STOP A and B solutions which are available from Upstate were mixed at a ratio of 3:1) and a fluorescence detection solution (Detection solutions A, B and C which are available from Upstate were mixed at a ratio of 1:1:18) were prepared. 1 mM of PIP2 substrate (phosphatidylinositol 4,5 biphosphate; Upstate), PI3Kγ (#14-558; Upstate) enzyme and 10 mM ATP (Sigma Aldrich Co., St. Louis, Mo., USA) were prepared. Each of PI3Kγ, 1 mM PIP2 and 10 mM ATP was diluted to 2.9 μg/ml (final reaction concentration: 1.45 μg/ml), 20 μM (final reaction concentration: 10 μM) and 40 μM (final reaction concentration: 10 μM), respectively. The buffer solution used for dilution and preparation process was the phosphorylation reaction solution. The stop solution was used for the termination of phosphorylation reaction, and the fluorescence detection solution was used for the detection of time-resolved fluorescence signals.
(§3) Each test sample was transferred to a 384 well low flange white flat bottom microplate (#3572, Corning Life Sciences, Lowell, Mass., USA) by using a multi 8-channel (Pipetman Neo multi 8×20, Gilson, Middleton, Wis., USA) to make a final phosphorylation reaction volume of 20 μl per each well. For the negative control, 5 μl of 14.4% DMSO and 10 μl of PIP2 substration solution were used, and 5 μl of 14.4% DMSO and 10 μl of PIP2/PI3Kγ mixed solution were used as the positive control. For the test group, 5 μl of a solution prepared by dissolving the compound obtained in Example in DMSO and 10 μl of PIP2/PI3Kγ mixed solution were used. Before the initiation of the phosphorylation reaction, sample compounds were pretreated with the enzyme for approximately 10 minutes, and then the phosphorylation reaction was induced by adding 5 μl of ATP. Since each of the test compound and ATP takes up 25% of the total volume, and PIP2 and PI3Kγ take up 50% of the total volume during the reaction, each solution was concentrated 4 and 2 times, respectively, before mixing the solutions. Subsequently, the test sample was gently shook for 3 minutes and subjected to a phosphorylation reaction for 90 minutes at room temperature, which was then added with 5 μl of the stop solution to terminate the phosphorylation reaction. In order to induce a time-resolved fluorescence reaction, 5 μl of the fluorescence detection solution was added to the sample. The fluorescence detection solution contains biotin-phosphatidylinositol 3,4,5-triphosphate (PIP3), streptavidin-labeled Allopycocyanin (APC) and europium-labeled Pleckstrin homology domain (the PIP3 binds to PH domain), and the time-resolved fluorescence reaction is induced by a series of reaction of PH domain and PIP3, and biotin and streptavidin. The sample was left to stand for 6 hours at room temperature, and the time-resolved fluorescence resonance energy transfer (TR-FRET) rate was measured (emission wavelength: 665 nm, 620 nm, excitation wavelength: 340 nm) by using a Flexstation3 Micro plate reader (Molecular Devices, USA). TR-FRET Rate and TR-Inhibition Rate were calculated based on Equations 1 and 2 below, and the results are expressed in IC50, which is the concentration of a compound that inhibits 50% of PI3Kγ activity in vitro. TR-FRET Rate=(665 nm emission wavelength/620 nm emission wavelength)×10000 <Equation 1> TR-FRET Inhibition Rate=[(TR-FRET Rate of Sample−TR-FRET Rate of Negative Control)/(TR-FRET Rate of Positive Control−TR-FRET Rate of Negative Control)]×100 <Equation 2> […]
On the technique in general: TR-FRET usually uses a lanthanide donor and a delayed reading to cut background.

The next experiment deals with PI3Kα (p110α/p85α)(h) (Homo sapiens, UniProt P42336). In words: Assay for phosphatidylinositol 3-kinase alpha (PI3Kα) activity, PI3K-HTRF kit. The following applies: TR-FRET; enzyme 0.3625 μg/ml, 10 μM PIP2, 10 μM ATP. On the procedure:
[The source words this procedure for another target and says it was used here with some conditions changed.] as §1, §2
(§4) Each test sample was transferred to a 384 well low flange white flat bottom microplate (#3572, Corning Life Sciences, Lowell, Mass., USA) by using a multi 8-channel (Pipetman Neo multi 8×20, Gilson, Middleton, Wis., USA) to make a final phosphorylation reaction volume of 20 μl per each well. For the negative control, 5 μl of 14.4% DMSO and 10 μl of PIP2 substration solution were used, and 5 μl of 14.4% DMSO and 10 μl of PIP2/PI3Kγ mixed solution were used as the positive control. For the test group, 5 μl of a solution prepared by dissolving the compound obtained in Example in DMSO and 10 μl of PIP2/PI3Kγ mixed solution were used. Before the initiation of the phosphorylation reaction, sample compounds were pretreated with the enzyme for approximately 10 minutes, and then the phosphorylation reaction was induced by adding 5 μl of ATP. Since each of the test compound and ATP takes up 25% of the total volume, and PIP2 and PI3Kγ take up 50% of the total volume during the reaction, each solution was concentrated 4 and 2 times, respectively, before mixing the solutions. Subsequently, the test sample was gently shook for 3 minutes and subjected to a phosphorylation reaction for 90 minutes at room temperature, which was then added with 5 μl of the stop solution to terminate the phosphorylation reaction. In order to induce a time-resolved fluorescence reaction, 5 μl of the fluorescence detection solution was added to the sample. The fluorescence detection solution contains biotin-phosphatidylinositol 3,4,5-triphosphate (PIP3), streptavidin-labeled Allopycocyanin (APC) and europium-labeled Pleckstrin homology domain (the PIP3 binds to PH domain), and the time-resolved fluorescence reaction is induced by a series of reaction of PH domain and PIP3, and biotin and streptavidin. The sample was left to stand for 6 hours at room temperature, and the time-resolved fluorescence resonance energy transfer (TR-FRET) rate was measured (emission wavelength: 665 nm, 620 nm, excitation wavelength: 340 nm) by using a Flexstation3 Micro plate reader (Molecular Devices, USA). TR-FRET Rate and TR-Inhibition Rate were calculated based on Equations 1 and 2 below, and the results are expressed in IC50, which is the concentration of a compound that inhibits 50% of PI3Kγ activity in vitro. TR-FRET Rate=(665 nm emission wavelength/620 nm emission wavelength)×10000 <Equation 1> TR-FRET Inhibition Rate=[(TR-FRET Rate of Sample−TR-FRET Rate of Negative Control)/(TR-FRET Rate of Positive Control−TR-FRET Rate of Negative Control)]×100 <Equation 2>

The next experiment has as its target PI3Kδ (p110δ/p85α)(h) (Homo sapiens, UniProt O00329). Briefly: Assay for phosphatidylinositol 3-kinase delta (PI3Kδ) activity, PI3K-HTRF kit. The following applies: TR-FRET; enzyme 0.725 μg/ml, 10 μM PIP2, 10 μM ATP. On the procedure:
[The source words this procedure for another target and says it was used here with some conditions changed.] as §1, §2, §3

Another experiment addresses PI3Kγ (p120γ)(h) (Homo sapiens, UniProt P48736). Briefly: Assay for phosphatidylinositol 3-kinase gamma (PI3Kγ) activity, PI3K-HTRF kit. The following applies: TR-FRET; enzyme 1.45 μg/ml, 10 μM PIP2, 10 μM ATP. On the procedure:
as §1, §2, §4

What is called IC50 is the midpoint of a concentration-inhibition curve. Read a high IC50 as weaker potency.

Chain of PI3Kα (p110α/p85α)(h) (P42336 whole entry): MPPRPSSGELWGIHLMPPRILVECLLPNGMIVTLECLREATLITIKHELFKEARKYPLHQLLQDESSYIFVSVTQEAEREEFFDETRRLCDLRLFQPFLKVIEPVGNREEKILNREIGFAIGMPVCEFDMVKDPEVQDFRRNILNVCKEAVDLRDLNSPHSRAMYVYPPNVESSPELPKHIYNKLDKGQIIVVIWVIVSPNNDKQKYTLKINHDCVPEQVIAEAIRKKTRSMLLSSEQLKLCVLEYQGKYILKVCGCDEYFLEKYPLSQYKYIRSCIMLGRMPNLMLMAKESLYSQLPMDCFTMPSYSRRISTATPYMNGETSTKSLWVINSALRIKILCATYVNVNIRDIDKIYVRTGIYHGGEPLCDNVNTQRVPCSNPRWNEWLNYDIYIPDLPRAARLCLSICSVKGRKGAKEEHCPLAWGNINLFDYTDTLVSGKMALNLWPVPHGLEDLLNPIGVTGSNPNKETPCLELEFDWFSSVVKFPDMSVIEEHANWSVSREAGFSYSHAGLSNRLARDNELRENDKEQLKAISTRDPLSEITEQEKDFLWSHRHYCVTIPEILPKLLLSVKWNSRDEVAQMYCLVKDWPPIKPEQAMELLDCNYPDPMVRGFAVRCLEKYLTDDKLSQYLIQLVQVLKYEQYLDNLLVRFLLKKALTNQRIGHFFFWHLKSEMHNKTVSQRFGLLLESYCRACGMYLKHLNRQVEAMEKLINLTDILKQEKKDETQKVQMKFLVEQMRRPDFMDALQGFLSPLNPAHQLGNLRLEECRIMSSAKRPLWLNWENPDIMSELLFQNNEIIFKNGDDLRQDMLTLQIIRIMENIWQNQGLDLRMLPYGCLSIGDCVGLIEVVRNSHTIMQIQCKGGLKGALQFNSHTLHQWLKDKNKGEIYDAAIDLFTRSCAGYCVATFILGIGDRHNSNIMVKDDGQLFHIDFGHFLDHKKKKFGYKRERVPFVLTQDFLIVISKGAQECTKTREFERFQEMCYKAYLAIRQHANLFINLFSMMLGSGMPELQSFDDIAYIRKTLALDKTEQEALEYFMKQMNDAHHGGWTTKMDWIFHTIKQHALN
Chain of PI3Kα (p110α/p85α)(h) (P27986 whole entry partner): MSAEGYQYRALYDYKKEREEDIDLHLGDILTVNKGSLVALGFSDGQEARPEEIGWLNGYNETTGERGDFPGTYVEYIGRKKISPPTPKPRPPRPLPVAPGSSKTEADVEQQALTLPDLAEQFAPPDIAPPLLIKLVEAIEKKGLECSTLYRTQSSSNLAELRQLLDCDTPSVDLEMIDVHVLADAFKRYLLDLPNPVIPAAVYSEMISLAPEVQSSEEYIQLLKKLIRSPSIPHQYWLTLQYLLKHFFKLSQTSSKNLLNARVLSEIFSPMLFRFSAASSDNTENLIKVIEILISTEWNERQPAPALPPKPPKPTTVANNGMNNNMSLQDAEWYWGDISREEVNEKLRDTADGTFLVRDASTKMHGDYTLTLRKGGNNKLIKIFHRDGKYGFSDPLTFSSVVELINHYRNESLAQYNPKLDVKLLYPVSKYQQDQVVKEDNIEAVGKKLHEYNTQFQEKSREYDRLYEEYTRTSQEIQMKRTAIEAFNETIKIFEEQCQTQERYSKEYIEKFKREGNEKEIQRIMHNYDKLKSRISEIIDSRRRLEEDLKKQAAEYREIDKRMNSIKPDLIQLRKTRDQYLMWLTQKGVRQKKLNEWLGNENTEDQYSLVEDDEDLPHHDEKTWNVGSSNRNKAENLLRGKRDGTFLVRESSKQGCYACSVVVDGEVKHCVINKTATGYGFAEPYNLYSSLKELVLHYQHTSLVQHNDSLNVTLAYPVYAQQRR
Chain of PI3K β (p110β/p85α)(h) (P42338 whole entry): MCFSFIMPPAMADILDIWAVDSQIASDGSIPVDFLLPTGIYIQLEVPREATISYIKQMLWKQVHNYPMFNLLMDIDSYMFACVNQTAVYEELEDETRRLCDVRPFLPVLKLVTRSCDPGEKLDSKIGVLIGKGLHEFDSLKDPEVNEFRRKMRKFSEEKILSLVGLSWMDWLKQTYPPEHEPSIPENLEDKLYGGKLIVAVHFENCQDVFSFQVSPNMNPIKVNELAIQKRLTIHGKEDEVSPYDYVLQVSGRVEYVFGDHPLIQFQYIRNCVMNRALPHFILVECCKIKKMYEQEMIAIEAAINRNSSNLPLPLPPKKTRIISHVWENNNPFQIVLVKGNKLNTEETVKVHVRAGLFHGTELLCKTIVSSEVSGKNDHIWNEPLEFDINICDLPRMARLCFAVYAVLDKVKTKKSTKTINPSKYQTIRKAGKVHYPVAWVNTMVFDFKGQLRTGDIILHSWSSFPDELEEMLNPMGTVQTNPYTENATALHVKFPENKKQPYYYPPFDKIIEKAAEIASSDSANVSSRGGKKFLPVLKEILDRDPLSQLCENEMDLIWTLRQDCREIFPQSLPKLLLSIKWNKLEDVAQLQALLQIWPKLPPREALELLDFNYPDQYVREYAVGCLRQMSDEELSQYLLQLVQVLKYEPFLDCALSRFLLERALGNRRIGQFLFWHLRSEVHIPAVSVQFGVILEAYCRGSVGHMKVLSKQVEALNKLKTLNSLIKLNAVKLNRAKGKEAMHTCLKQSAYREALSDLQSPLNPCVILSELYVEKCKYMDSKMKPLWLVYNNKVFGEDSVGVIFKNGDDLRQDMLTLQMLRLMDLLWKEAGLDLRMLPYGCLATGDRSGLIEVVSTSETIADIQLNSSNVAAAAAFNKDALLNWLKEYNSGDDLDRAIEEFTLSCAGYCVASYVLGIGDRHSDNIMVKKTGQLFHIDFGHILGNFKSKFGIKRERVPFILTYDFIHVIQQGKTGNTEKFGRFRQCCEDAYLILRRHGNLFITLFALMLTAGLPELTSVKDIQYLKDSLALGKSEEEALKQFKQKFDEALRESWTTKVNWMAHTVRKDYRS
Chain of PI3K β (p110β/p85α)(h) (P27986 whole entry partner): as the sequence (P27986 whole entry partner) above
Chain of PI3Kγ (p120γ)(h) (P48736 whole entry): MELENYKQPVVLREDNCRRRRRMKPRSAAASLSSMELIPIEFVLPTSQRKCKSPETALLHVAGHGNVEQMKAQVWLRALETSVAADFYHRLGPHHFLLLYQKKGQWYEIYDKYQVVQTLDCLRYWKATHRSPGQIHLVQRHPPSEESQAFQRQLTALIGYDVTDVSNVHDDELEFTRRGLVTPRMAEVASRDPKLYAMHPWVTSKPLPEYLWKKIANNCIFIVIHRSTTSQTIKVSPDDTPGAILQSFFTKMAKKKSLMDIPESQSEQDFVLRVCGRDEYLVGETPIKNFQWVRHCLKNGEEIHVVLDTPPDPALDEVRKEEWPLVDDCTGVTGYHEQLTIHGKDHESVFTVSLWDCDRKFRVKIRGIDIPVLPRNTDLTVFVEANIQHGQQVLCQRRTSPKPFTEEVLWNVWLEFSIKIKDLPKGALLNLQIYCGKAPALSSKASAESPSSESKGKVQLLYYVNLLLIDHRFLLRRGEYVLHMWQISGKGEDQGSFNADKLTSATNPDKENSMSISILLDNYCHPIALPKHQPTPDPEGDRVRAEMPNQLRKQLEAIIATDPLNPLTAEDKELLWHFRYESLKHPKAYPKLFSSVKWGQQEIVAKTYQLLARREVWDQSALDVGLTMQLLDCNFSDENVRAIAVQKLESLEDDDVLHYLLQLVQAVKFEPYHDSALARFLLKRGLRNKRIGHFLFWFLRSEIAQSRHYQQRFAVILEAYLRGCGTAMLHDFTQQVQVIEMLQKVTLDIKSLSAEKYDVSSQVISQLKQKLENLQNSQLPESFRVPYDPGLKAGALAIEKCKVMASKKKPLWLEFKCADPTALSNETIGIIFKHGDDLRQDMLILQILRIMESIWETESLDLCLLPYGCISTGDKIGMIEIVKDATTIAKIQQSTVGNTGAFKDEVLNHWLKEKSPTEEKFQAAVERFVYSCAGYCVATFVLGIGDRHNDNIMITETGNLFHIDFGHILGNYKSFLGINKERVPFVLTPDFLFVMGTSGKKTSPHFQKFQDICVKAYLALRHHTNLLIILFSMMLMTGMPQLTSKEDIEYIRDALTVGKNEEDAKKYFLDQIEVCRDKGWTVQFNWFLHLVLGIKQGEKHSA
Chain of PI3Kδ (p110δ/p85α)(h) (O00329 whole entry): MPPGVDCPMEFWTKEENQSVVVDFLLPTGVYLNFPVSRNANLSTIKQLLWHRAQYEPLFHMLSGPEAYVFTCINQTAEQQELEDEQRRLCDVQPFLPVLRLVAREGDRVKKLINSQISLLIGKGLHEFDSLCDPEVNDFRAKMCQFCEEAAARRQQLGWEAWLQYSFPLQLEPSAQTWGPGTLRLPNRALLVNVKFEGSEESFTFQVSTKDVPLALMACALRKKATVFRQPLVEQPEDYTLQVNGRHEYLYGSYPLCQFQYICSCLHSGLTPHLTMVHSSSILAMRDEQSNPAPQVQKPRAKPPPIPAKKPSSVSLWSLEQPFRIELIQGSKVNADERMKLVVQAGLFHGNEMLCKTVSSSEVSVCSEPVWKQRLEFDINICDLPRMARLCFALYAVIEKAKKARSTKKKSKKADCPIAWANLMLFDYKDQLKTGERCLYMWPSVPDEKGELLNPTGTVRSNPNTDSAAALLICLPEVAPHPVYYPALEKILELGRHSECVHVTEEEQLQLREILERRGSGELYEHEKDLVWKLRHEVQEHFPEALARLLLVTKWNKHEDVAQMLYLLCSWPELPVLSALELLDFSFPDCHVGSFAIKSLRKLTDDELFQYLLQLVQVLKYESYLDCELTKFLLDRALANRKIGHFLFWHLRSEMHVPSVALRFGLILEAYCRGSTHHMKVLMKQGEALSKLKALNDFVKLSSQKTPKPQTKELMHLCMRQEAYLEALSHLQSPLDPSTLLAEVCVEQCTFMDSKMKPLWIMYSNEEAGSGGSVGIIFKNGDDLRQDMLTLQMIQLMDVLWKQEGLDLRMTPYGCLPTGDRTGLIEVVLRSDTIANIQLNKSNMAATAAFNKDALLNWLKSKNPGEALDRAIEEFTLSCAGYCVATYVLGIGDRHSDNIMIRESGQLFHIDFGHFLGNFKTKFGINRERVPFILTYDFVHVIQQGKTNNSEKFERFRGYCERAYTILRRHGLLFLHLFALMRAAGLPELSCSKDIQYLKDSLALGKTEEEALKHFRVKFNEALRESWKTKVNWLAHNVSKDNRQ
Chain of PI3Kδ (p110δ/p85α)(h) (P27986 whole entry partner): as the sequence (P27986 whole entry partner) above

As to “2-Thioxo-5-[{7-(m-tolylethynyl)furo[3,2-c]pyridin-2-yl}methyl]thiazolidin-4-one [Example 546]”, the IC50 is 5500 nM against PI3K β (p110β/p85α)(h), 360 nM on PI3Kα (p110α/p85α)(h), above 10000 nM against PI3Kδ (p110δ/p85α)(h) and 3 nM against PI3Kγ (p120γ)(h).

For “5-[{7-(p-Tolylethynyl)furo[3,2-c]pyridin-2-yl}methyl]thiazolidine-2,4-dione [Example 520]”, the IC50 against PI3K β (p110β/p85α)(h) was 9740 nM; against PI3Kα (p110α/p85α)(h), 15 nM; against PI3Kδ (p110δ/p85α)(h), above 10000 nM; against PI3Kγ (p120γ)(h) it was 11 nM.

Turning to `O=C1NC(=O)/C(=C/c2cc3cncc(-c4ccc(F)cc4F)c3o2)S1` [Example 2, (Z)-5-[{7-(2,4-Difluorophenyl)furo[3,2-c]pyridin-2-yl}methylene]thiazolidine-2,4-dione], the IC50 came to 208 nM against PI3K β (p110β/p85α)(h), 35 nM on PI3Kα (p110α/p85α)(h), 117 nM against PI3Kδ (p110δ/p85α)(h) and 654 nM at PI3Kγ (p120γ)(h).

`O=C1NC(=O)/C(=C/c2cc3cncc(-c4cccc(OCc5ccccc5)c4)c3o2)S1` [Example 6, (Z)-5-([7-{3-(Benzyloxy)phenyl}furo[3,2-c]pyridin-2-yl]methylene)thiazolidine-2,4-dione]: the concentration for half-maximal inhibition (IC50) on PI3K β (p110β/p85α)(h) amounted to 3 nM; on PI3Kα (p110α/p85α)(h), 2 nM; on PI3Kδ (p110δ/p85α)(h), 2350 nM; at PI3Kγ (p120γ)(h), 14 nM.

Regarding `O=C1NC(=O)/C(=C/c2cc3cncc(-c4ccc(O)nc4)c3o2)S1` [Example 11, (Z)-5-[{7-(6-Hydroxypyridin-3-yl)furo[3,2-c]pyridin-2-yl}methylene]thiazolidine-2,4-dione], the IC50 amounted to 48 nM at PI3K β (p110β/p85α)(h), 8 nM against PI3Kα (p110α/p85α)(h), 168 nM on PI3Kδ (p110δ/p85α)(h) and 15 nM against PI3Kγ (p120γ)(h).

Consider `Cn1cc(-c2cncc3cc(/C=C4\SC(=O)NC4=O)oc23)cn1` [Example 12, (Z)-5-[{7-(1-Methyl-1H-pyrazol-4-yl)furo[3,2-c]pyridin-2-yl}methylene]thiazolidine-2,4-dione], for which the IC50 at PI3K β (p110β/p85α)(h) is 572 nM; at PI3Kα (p110α/p85α)(h), 7 nM; against PI3Kδ (p110δ/p85α)(h), above 10000 nM; against PI3Kγ (p120γ)(h), 28 nM.

For `O=C1NC(=O)/C(=C/c2cc3cncc(-c4cc5ccccc5s4)c3o2)S1` [Example 14, (Z)-5-[{7-(Benzo[b]thiophen-2-yl)furo[3,2-c]pyridin-2-yl}methylene]thiazolidine-2,4-dione], the IC50 was above 10000 nM at PI3K β (p110β/p85α)(h), 6 nM against PI3Kα (p110α/p85α)(h), 149 nM against PI3Kδ (p110δ/p85α)(h) and 29 nM on PI3Kγ (p120γ)(h).

In the case of `CSc1ccc(-c2cncc3cc(/C=C4\SC(=O)NC4=O)oc23)cc1` [Example 23, (Z)-5-([7-{4-(Methylthio)phenyl}furo[3,2-c]pyridin-2-yl]methylene)thiazolidine-2,4-dione], the IC50 against PI3K β (p110β/p85α)(h) was above 10000 nM; against PI3Kα (p110α/p85α)(h) it was 43 nM; on PI3Kδ (p110δ/p85α)(h), above 10000 nM; on PI3Kγ (p120γ)(h), 9 nM.

Turning to `COc1ccc(-c2cncc3cc(/C=C4\SC(=O)NC4=O)oc23)cc1` [Example 25, (Z)-5-[{7-(4-Methoxyphenyl)furo[3,2-c]pyridin-2-yl}methylene]thiazolidine-2,4-dione], the IC50 on PI3K β (p110β/p85α)(h) is above 10000 nM; at PI3Kα (p110α/p85α)(h) it was 6 nM; at PI3Kδ (p110δ/p85α)(h), above 10000 nM; on PI3Kγ (p120γ)(h), 5 nM.

On to `COc1ccc(-c2cncc3cc(/C=C4\SC(=O)NC4=O)oc23)cn1` [Example 30, (Z)-5-[{7-(6-Methoxypyridin-3-yl)furo[3,2-c]pyridin-2-yl}methylene]thiazolidine-2,4-dione], for which the IC50 on PI3K β (p110β/p85α)(h) was found to be 1370 nM; against PI3Kα (p110α/p85α)(h), 40 nM; against PI3Kδ (p110δ/p85α)(h) it was 460 nM; against PI3Kγ (p120γ)(h), 6 nM.

`COc1ccc(-c2cncc3cc(/C=C4\SC(=O)NC4=O)oc23)cc1OC` [Example 33, (Z)-5-[{7-(3,4-Dimethoxyphenyl)furo[3,2-c]pyridin-2-yl}methylene]thiazolidine-2,4-dione]: the IC50 at PI3K β (p110β/p85α)(h) came to 77 nM; at PI3Kα (p110α/p85α)(h) it was 8 nM; against PI3Kδ (p110δ/p85α)(h), 37 nM; at PI3Kγ (p120γ)(h), 9 nM.

For the compound `O=C1NC(=O)/C(=C/c2cc3cncc(-c4ccc5c(c4)OCO5)c3o2)S1` [Example 36, (Z)-5-[{7-(Benzo[d][1,3]dioxol-5-yl)furo[3,2-c]pyridin-2-yl}methylene]thiazolidine-2,4-dione], the half-inhibitory concentration (IC50) at PI3K β (p110β/p85α)(h) was 14 nM; at PI3Kα (p110α/p85α)(h), 86 nM; against PI3Kδ (p110δ/p85α)(h), above 10000 nM; at PI3Kγ (p120γ)(h) it was 154 nM.

In the case of `CS(=O)(=O)c1ccc(-c2cncc3cc(/C=C4\SC(=O)NC4=O)oc23)cc1` [Example 40, (Z)-5-([7-{4-(Methylsulfonyl)phenyl}furo[3,2-c]pyridin-2-yl]methylene)thiazolidine-2,4-dione], the IC50 is 177 nM against PI3K β (p110β/p85α)(h), 8 nM against PI3Kα (p110α/p85α)(h), 590 nM against PI3Kδ (p110δ/p85α)(h) and 28 nM at PI3Kγ (p120γ)(h).

In the case of `O=C1NC(=O)/C(=C/c2cc3cncc(-c4cccc(OCC(F)(F)F)c4)c3o2)S1` [Example 110, (Z)-5-([7-{3-(2,2,2-Trifluoroethoxyl)phenyl}furo[3,2-c]pyridin-2-yl]methylene)thiazolidine-2,4-dione], the IC50 stood at 293 nM against PI3K β (p110β/p85α)(h), 4230 nM at PI3Kδ (p110δ/p85α)(h) and 96 nM at PI3Kγ (p120γ)(h).
